According to patent US7759345B2, “Antitumoral derivatives of ET-743” (priority 2001, dated 2010):

How the values were obtained:
K-562 = assay: Inhibition of cells growth by colorimetric assay (SRB), K-562; assay type: cell-based; details: SRB, 48 hours exposure; for GI50 / LC50 (50% cell killing): Homo sapiens, K562, 48 h; for GI50 / TGI K-562: K-562; for GI50: read-out: GI50 K-562; for LC50 (50% cell killing): read-out: LC50 K-562, K-562
Summary of the method: (§1)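 Human cancer and endothelial lines are seeded at 5×10^3 cells per well and, after 18 h, treated for 48 h with compound dissolved in DMSO/EtOH/PBS (0.5:0.5:99) at 10 to 10^−8 μg/ml. Cell mass is quantified by SRB staining (OD 490 nm), and growth inhibition, total growth inhibition and cell kill are calculated from triplicate wells.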

A-549 = assay: Inhibition of cells growth by colorimetric assay (SRB), A-549; assay type: cell-based; details: SRB, 48 hours exposure; for GI50 / LC50 (concentration for 50% cell killing): Homo sapiens, A549, 48 h; for TGI A-549 / GI50: A-549; for GI50: read-out: GI50 A-549; for LC50 (concentration for 50% cell killing): read-out: LC50 A-549, A-549
Summary of the method: as §1

SK-MEL-28 = assay: Inhibition of cells growth by colorimetric assay (SRB), SK-MEL-28; assay type: cell-based; details: SRB, 48 hours exposure; for GI50 / CC50: Homo sapiens, SK-MEL-28, 48 h; for GI50 / TGI MEL-28: MEL-28; for GI50: read-out: GI50 MEL-28; for CC50: read-out: LC50 MEL-28, MEL-28
Summary of the method: as §1

HT-29 = assay: Inhibition of cells growth by colorimetric assay (SRB), HT-29; assay type: cell-based; details: SRB, 48 hours exposure; for GI50 / LC50 (concentration for 50% cell killing): Homo sapiens, HT-29, 48 h; for TGI HT-29 / GI50: HT-29; for GI50: read-out: GI50 HT-29; for LC50 (concentration for 50% cell killing): read-out: LC50 HT-29, HT-29
Summary of the method: as §1

LoVo = assay: Inhibition of cells growth by colorimetric assay (SRB), LoVo; assay type: cell-based; details: SRB, 48 hours exposure; for GI50 / LC50 (concentration for 50% cell killing): Homo sapiens, LoVo, 48 h; for GI50 / TGI LOVO: LOVO; for GI50: read-out: GI50 LOVO; for LC50 (concentration for 50% cell killing): read-out: LC50 LOVO, LOVO
Summary of the method: as §1

LoVo-Dox = assay: Inhibition of cells growth by colorimetric assay (SRB), LoVo-Dox; assay type: cell-based; details: SRB, 48 hours exposure; for GI50 / CC50: Homo sapiens, 48 h; for GI50 / TGI LOVO-DOX: LOVO-DOX; for GI50: read-out: GI50 LOVO-DOX; for CC50: read-out: LC50 LOVO-DOX, LOVO-DOX
Summary of the method: as §1

DU-145 = assay: Inhibition of cells growth by colorimetric assay (SRB), DU-145; assay type: cell-based; details: SRB, 48 hours exposure; for GI50 / CC50: Homo sapiens, DU-145, 48 h; for TGI DU-145 / GI50: DU-145; for GI50: read-out: GI50 DU-145; for CC50: read-out: LC50 DU-145, DU-145
Summary of the method: as §1

LNCaP = assay: Inhibition of cells growth by colorimetric assay (SRB), LNCaP; assay type: cell-based; details: SRB, 48 hours exposure; for CC50 / GI50: Homo sapiens; for CC50: LNCaP, 48 h, read-out: LC50 LNCAP, LNCAP; for GI50 / TGI LNCAP: LNCAP; for GI50: read-out: GI50 LNCAP
Summary of the method: as §1

SK-BR-3 = assay: Inhibition of cells growth by colorimetric assay (SRB), SK-BR-3; assay type: cell-based; details: SRB, 48 hours exposure; for GI50 / CC50: Homo sapiens, SK-BR-3, 48 h; for GI50 / TGI SK-BR3: SK-BR3; for GI50: read-out: GI50 SK-BR3; for CC50: read-out: LC50 SK-BR3, SK-BR3
Summary of the method: as §1

IGROV-1 = assay: Inhibition of cells growth by colorimetric assay (SRB), IGROV-1; assay type: cell-based; details: SRB, 48 hours exposure; for GI50 / CC50: Homo sapiens, IGROV-1, 48 h; for GI50 / TGI IGROV: IGROV; for GI50: read-out: GI50 IGROV; for CC50: read-out: LC50 IGROV, IGROV
Summary of the method: as §1

IGROV-ET = assay: Inhibition of cells growth by colorimetric assay (SRB), IGROV-ET; assay type: cell-based; details: SRB, 48 hours exposure; for GI50 / CC50: Homo sapiens, 48 h; for GI50 / TGI IGROV-ET: IGROV-ET; for GI50: read-out: GI50 IGROV-ET; for CC50: read-out: LC50 IGROV-ET, IGROV-ET
Summary of the method: as §1

SK-OV-3 = assay: Inhibition of cells growth by colorimetric assay (SRB), SK-OV-3; assay type: cell-based; details: SRB, 48 hours exposure; for GI50 / LC50: Homo sapiens, SK-OV-3, 48 h; for GI50 / TGI SK-OV3: SK-OV3; for GI50: read-out: GI50 SK-OV3; for LC50: read-out: LC50 SK-OV3, SK-OV3
Summary of the method: as §1

PANC-1 = assay: Inhibition of cells growth by colorimetric assay (SRB), PANC-1; assay type: cell-based; details: SRB, 48 hours exposure; for GI50 / LC50 (concentration for 50% net cell kill): Homo sapiens, PANC-1, 48 h; for GI50 / TGI PANC-1: PANC-1; for GI50: read-out: GI50 PANC-1; for LC50 (concentration for 50% net cell kill): read-out: LC50 PANC-1, PANC-1
Summary of the method: as §1

HMEC1 = assay: Inhibition of cells growth by colorimetric assay (SRB), HMEC1; assay type: cell-based; details: SRB, 48 hours exposure; for GI50 / LC50: Homo sapiens, HMEC-1, 48 h; for TGI HMEC-1 / GI50: HMEC-1; for GI50: read-out: GI50 HMEC-1; for LC50: read-out: LC50 HMEC-1, HMEC-1
Summary of the method: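 Growth inhibition is measured by sulforhodamine B staining of TCA-fixed cells after 48 h of compound exposure across 10 to 10^−8 μg/ml. Cells are seeded at 5×10^3 per well and grown drug-free for 18 h beforehand; absorbance at 490 nm yields GI, TGI and LC values.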

Excerpt for Heart: (§2) Toxicity was asssessed by the methods reported in Toxicology in Vitro, 15 (2001) 571-577, J. Luber Narod et al.: “Evaluation of the use of in vitro methodolodies as tools for screening new compounds for potential in vivo toxicity”.
Excerpt for Kidney: as §2
Excerpt for Liver: as §2
Excerpt for Myelo: as §2
Excerpt for Skeletal: as §2

For `COc1cc2c(cc1OC)[C@@]1(CS[C@@H]3c4c(OC(C)=O)c(C)c5c(c4[C@H](COC1=O)N1C3[C@H]3c4c(cc(C)c(OC)c4O)C[C@@H]([C@@H]1O)N3C)OCO5)NCC2` (stereo partly shown) [Compound 67], the GI50 (K-562) was 0.118 nM, the LC50 (50% cell killing) (K-562) was 0.8 nM and the “TGI K-562” value (K-562) was 2.85E-10. The “TGI A-549” value (A-549) was 3.63E-09, the GI50 (A-549) was 1.31 nM and the LC50 (concentration for 50% cell killing) (A-549) was 10.1 nM. For the same compound, the GI50 (SK-MEL-28) was 0.411 nM, the CC50 (SK-MEL-28) was 6.24 nM and the “TGI MEL-28” value (SK-MEL-28) was 9.90E-10. For the same compound, the “TGI HT-29” value (HT-29) was 5.59E-09, the GI50 (HT-29) was 0.741 nM and the LC50 (concentration for 50% cell killing) (HT-29) was 12900 nM. For the same compound, the GI50 (LoVo) was 0.602 nM, the LC50 (concentration for 50% cell killing) (LoVo) was 17.7 nM and the “TGI LOVO” value (LoVo) was 3.34E-09. For the same compound, the GI50 (LoVo-Dox) was 4.21 nM, the CC50 (LoVo-Dox) was 12800 nM and the “TGI LOVO-DOX” value (LoVo-Dox) was 3.65E-08. The “TGI DU-145” value (DU-145) was 8.61E-10, the GI50 (DU-145) was 0.433 nM and the CC50 (DU-145) was 4470 nM. The CC50 (LNCaP) was 0.844 nM, the GI50 (LNCaP) was 0.307 nM and the “TGI LNCAP” value (LNCaP) was 5.09E-10. The GI50 (SK-BR-3) was 0.394 nM, the CC50 (SK-BR-3) was 7.48 nM and the “TGI SK-BR3” value (SK-BR-3) was 1.11E-09. For the same compound, the GI50 (IGROV-1) was 0.266 nM, the CC50 (IGROV-1) was 1.21 nM and the “TGI IGROV” value (IGROV-1) was 5.67E-10. The GI50 (IGROV-ET) was 1.88 nM, the CC50 (IGROV-ET) was 4960 nM and the “TGI IGROV-ET” value (IGROV-ET) was 7.02E-09. For the same compound, the GI50 (SK-OV-3) was 0.385 nM, the LC50 (SK-OV-3) was 7940 nM and the “TGI SK-OV3” value (SK-OV-3) was 8.52E-10. For the same compound, the GI50 (PANC-1) was 0.443 nM, the LC50 (concentration for 50% net cell kill) (PANC-1) was 2670 nM and the “TGI PANC-1” value (PANC-1) was 1.09E-09. The “TGI HMEC-1” value (HMEC1) was 8.49E-09, the GI50 (HMEC1) was 1.02 nM and the LC50 (HMEC1) was 5050 nM. The “Toxicity Data Liver” value (Liver) was 3.20E-08, the “Toxicity Data Heart” value (Heart) was 4.54E-08 and the “Toxicity Data Myelo” value (Myelo) was 3.27E-08. The “Toxicity Data Skeletal” value (Skeletal) was 2.37E-08 and the “Toxicity Data Kidney” value (Kidney) was 5.36E-08.
`COc1cc2c(cc1OC(=O)c1cc3ccccc3oc1=O)CCN[C@]21CS[C@@H]2c3c(OC(C)=O)c(C)c4c(c3[C@H](COC1=O)N1C2[C@H]2c3c(cc(C)c(OC)c3O)C[C@@H]([C@@H]1O)N2C)OCO4` (stereo partly shown) [Compound 76] was tested, and the GI50 (K-562) was 0.00278 nM, the LC50 (50% cell killing) (K-562) was 0.351 nM and the “TGI K-562” value (K-562) was 3.78E-11. For the same compound, the “TGI A-549” value (A-549) was 4.31E-09, the GI50 (A-549) was 2.06 nM and the LC50 (concentration for 50% cell killing) (A-549) was 9.07 nM. For the same compound, the GI50 (SK-MEL-28) was 0.622 nM, the CC50 (SK-MEL-28) was 8.28 nM and the “TGI MEL-28” value (SK-MEL-28) was 2.51E-09. The “TGI HT-29” value (HT-29) was 6.18E-09, the GI50 (HT-29) was 1.28 nM and the LC50 (concentration for 50% cell killing) (HT-29) was 4520 nM. For the same compound, the GI50 (LoVo) was 1.03 nM, the LC50 (concentration for 50% cell killing) (LoVo) was 10.8 nM and the “TGI LOVO” value (LoVo) was 3.30E-09. The GI50 (LoVo-Dox) was 13.9 nM, the CC50 (LoVo-Dox) was 107 nM and the “TGI LOVO-DOX” value (LoVo-Dox) was 4.70E-08. For the same compound, the “TGI DU-145” value (DU-145) was 6.16E-10, the GI50 (DU-145) was 0.249 nM and the CC50 (DU-145) was 2140 nM. The CC50 (LNCaP) was 0.891 nM, the GI50 (LNCaP) was 0.217 nM and the “TGI LNCAP” value (LNCaP) was 4.40E-10. The GI50 (SK-BR-3) was 0.337 nM, the CC50 (SK-BR-3) was 6.17 nM and the “TGI SK-BR3” value (SK-BR-3) was 1.24E-09. The GI50 (IGROV-1) was 0.192 nM, the CC50 (IGROV-1) was 1.66 nM and the “TGI IGROV” value (IGROV-1) was 4.56E-10. The GI50 (IGROV-ET) was 1.52 nM, the CC50 (IGROV-ET) was 21 nM and the “TGI IGROV-ET” value (IGROV-ET) was 3.92E-09. For the same compound, the GI50 (SK-OV-3) was 0.293 nM, the LC50 (SK-OV-3) was 4810 nM and the “TGI SK-OV3” value (SK-OV-3) was 8.93E-10. For the same compound, the GI50 (PANC-1) was 1.22 nM, the LC50 (concentration for 50% net cell kill) (PANC-1) was 44.1 nM and the “TGI PANC-1” value (PANC-1) was 4.68E-09. For the same compound, the “TGI HMEC-1” value (HMEC1) was 6.55E-09, the GI50 (HMEC1) was 1.83 nM and the LC50 (HMEC1) was 186 nM. The “Toxicity Data Liver” value (Liver) was 1.35E-08, the “Toxicity Data Heart” value (Heart) was 1.62E-08 and the “Toxicity Data Myelo” value (Myelo) was 8.19E-09. The “Toxicity Data Skeletal” value (Skeletal) was 2.15E-09 and the “Toxicity Data Kidney” value (Kidney) was 3.20E-09.
